From patent US9642831B2, “Substituted chromanes and method of use” (AbbVie S.á.r.l., priority 2014, dated 2017)

Experiments:
[1] = molecular target: T1, F508delCFTR (Homo sapiens, UniProt P13569, DEL508-508); test: Transepithelial Clamp Circuit (TECC-24) conductance assay on primary human bronchial epithelial cells (hBE-TECC); assay type: cell-based; set-up: cells isolated from CF patients with the homozygous mutation; endogenous in cells; host or cells: primary human bronchial epithelial (hBE) cells from F508del/F508del CF patients; conditions: for EC50: primary hBE cells from F508del/F508delCFTR patients, corrector 18-24 hours at 37° C., equivalent short circuit current (Ieq), with control potentiator 1 μM; for Emax: relative to positive control (3 μM Example 1 coupled with control potentiator = 100%), primary hBE F508del/F508del cells, read-out: Maximum % activity (%)
Description: Transepithelial Clamp Circuit on Human Bronchial Epithelial Cells Conductance Assay:
A cell based assay using the primary human bronchial epithelial cells (hBE) was used as a secondary assay to test novel F508delCFTR correctors for their activity on primary hBE cells with F508del/F508del CFTR mutation. The assay used a TECC-24 (Transepithelial Clamp Circuit for 24 wells) instrument that measures the functionality of the mutated channel by measuring the equivalent short circuit current (Ieq) generated by the polarized epithelial cells. The instrument works by measuring the transepithelial potential difference (Vt) and transepithelial resistance (Rt) in an open circuit format, and the Ieq is calculated by using Ohms law (Ieq=Vt/Rt). The assay was run in a 24-well format and all 24-wells were measured at the same time point giving a higher throughput for this assay.
Primary human bronchial epithelial (hBE) cells from F508del/F508delCFTR patients were expanded from 1×10^6 to 250×10^6 cells (Neuberger T, Burton B, Clark H and VanGoor F; Cystic Fibrosis, Methods in Mole Biol 741; eds. Amaral M D and Kunzelmann K, 2011). For this purpose, cells isolated from CF patients with the homozygous mutation were seeded onto 24 well Corning (Cat #3378) filter plates that were coated with 3T3 conditioned media and grown at an air-liquid interface for 35 days using an Ultroser® G supplemented differentiation media. Apical surface mucus was removed 72 hours before the experiment using 3 mM dithiothreitol (DTT) in phosphate buffered saline (PBS). The apical surface was washed again 24 hours before the experiment using PBS. The cells were incubated with the desired dose response of the corrector compounds 18-24 hours at 37° C., 5% CO2. The corrector compounds are only added on the basolateral side of the epithelial cells.
On the day of measuring the corrector activity on the TECC, the cells were switched into a bicarbonate and serum free F-12 Coon's medium and allowed to equilibrate for 90 minutes in a CO2 free incubator. At the time of measurement, the apical and basolateral sides of the filter were bathed with the F-12 Coon's modification media (with 20 mM 4-(2-hydroxyethyl)-1-piperazineethanesulfonic acid (HEPES), pH 7.4 (using 1 M tris(hydroxymethyl)aminormethane (Tris)), and the measurements were made at 36.5° C. Transepithelial voltage (Vt) and transepithelial resistance (Rt) were measured using a 24 channel transepithelial current clamp (TECC-24). Current responses to the sequential addition of benzamil (apical 6 μM addition; for inhibiting epithelial ENaC channel), forskolin (apical and basolateral 10 μM addition; for activating the CFTR channel), control potentiator (N-(3-carbamoyl-5,5,7,7-tetramethyl-4,7-dihydro-5H-thieno[2,3-c]pyran-2-yl)-1H-pyrazole-5-carboxamide; apical and basolateral 1 μM addition; for potentiating the CFTR channel) and bumetanide (basolateral 20 μM addition; for inhibiting the Na:2Cl:K co-transporter, an indirect measure of inhibiting the Cl-secretion driven by CFTR channel) were measured.
All plates contained negative controls (dimethyl sulfoxide, DMSO) which coupled with the control potentiator (N-(3-carbamoyl-5,5,7,7-tetramethyl-4,7-dihydro-5H-thieno[2,3-c]pyran-2-yl)-1H-pyrazole-5-carboxamide) sets the null response and positive controls (3 μM of 3-[(2R,4R)-4-({[1-(2,2-difluoro-1,3-benzodioxol-5-yl)cyclopropyl]carbonyl}amino)-7-methoxy-3,4-dihydro-2H-chromen-2-yl]benzoic acid) coupled with the control potentiator sets the 100% response to measure the correction of the mutated CFTR channel. The maximum percent activity is reported relative to the positive control value.
The % activity measured at each of the 6 test concentrations of the test compound was normalized to the on-plate positive control using the following formula: % activity=[(test compound response−DMSO response)/(positive control response−DMSO response)]*100 […]

[2] = test system: CYP3A4; test: CYP3A4 induction in primary human hepatocytes (mRNA, RT-PCR); conditions: test compounds 10 μM, 48 hours, % of response of positive control (Rifampin 10 μM)
Description: Cryopreserved primary human hepatocytes were thawed and cultured overnight prior to treatment. […] Following the 48 hour treatment, hepatocytes were harvested for RNA isolation and reverse transcription, followed by CYP3A4 mRNA quantitation using RT-PCR (real time reverse transcript polymerase chain reaction).
Fold Induction=Fold of Treated/Fold of Vehicle Control % positive control=(Fold Induction of Treated−1)/(Fold Induction of Prototypical Inducer−1)

[3] = molecular target: T1, F508delCFTR; test: Cell Surface Expression-Horse Radish Peroxidase (CSE-HRP) assay; assay type: cell-based; set-up: expressed in transfected cells; host or cells: CFBE41o- human lung derived epithelial cell line, doxycycline-inducible; conditions: CFBE4lo-F508delCFTR-HRP cells; for EC50: 18-24 hours at 33° C., 8-point curve, highest concentration 20 μM, luminescence readout; for Emax: maximum % activity at any tested concentration, normalized to on-plate positive control (3 μM Example 1)
Method in brief: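 Following 18-24 h compound exposure at 33° C. Expression was doxycycline-induced beforehand. % activity versus DMSO and a 3 μM corrector control gave maximum activity and EC50 from a variable-Hill sigmoidal fit.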

T1 sequence (P13569 with tags, fused parts or gaps DEL508-508): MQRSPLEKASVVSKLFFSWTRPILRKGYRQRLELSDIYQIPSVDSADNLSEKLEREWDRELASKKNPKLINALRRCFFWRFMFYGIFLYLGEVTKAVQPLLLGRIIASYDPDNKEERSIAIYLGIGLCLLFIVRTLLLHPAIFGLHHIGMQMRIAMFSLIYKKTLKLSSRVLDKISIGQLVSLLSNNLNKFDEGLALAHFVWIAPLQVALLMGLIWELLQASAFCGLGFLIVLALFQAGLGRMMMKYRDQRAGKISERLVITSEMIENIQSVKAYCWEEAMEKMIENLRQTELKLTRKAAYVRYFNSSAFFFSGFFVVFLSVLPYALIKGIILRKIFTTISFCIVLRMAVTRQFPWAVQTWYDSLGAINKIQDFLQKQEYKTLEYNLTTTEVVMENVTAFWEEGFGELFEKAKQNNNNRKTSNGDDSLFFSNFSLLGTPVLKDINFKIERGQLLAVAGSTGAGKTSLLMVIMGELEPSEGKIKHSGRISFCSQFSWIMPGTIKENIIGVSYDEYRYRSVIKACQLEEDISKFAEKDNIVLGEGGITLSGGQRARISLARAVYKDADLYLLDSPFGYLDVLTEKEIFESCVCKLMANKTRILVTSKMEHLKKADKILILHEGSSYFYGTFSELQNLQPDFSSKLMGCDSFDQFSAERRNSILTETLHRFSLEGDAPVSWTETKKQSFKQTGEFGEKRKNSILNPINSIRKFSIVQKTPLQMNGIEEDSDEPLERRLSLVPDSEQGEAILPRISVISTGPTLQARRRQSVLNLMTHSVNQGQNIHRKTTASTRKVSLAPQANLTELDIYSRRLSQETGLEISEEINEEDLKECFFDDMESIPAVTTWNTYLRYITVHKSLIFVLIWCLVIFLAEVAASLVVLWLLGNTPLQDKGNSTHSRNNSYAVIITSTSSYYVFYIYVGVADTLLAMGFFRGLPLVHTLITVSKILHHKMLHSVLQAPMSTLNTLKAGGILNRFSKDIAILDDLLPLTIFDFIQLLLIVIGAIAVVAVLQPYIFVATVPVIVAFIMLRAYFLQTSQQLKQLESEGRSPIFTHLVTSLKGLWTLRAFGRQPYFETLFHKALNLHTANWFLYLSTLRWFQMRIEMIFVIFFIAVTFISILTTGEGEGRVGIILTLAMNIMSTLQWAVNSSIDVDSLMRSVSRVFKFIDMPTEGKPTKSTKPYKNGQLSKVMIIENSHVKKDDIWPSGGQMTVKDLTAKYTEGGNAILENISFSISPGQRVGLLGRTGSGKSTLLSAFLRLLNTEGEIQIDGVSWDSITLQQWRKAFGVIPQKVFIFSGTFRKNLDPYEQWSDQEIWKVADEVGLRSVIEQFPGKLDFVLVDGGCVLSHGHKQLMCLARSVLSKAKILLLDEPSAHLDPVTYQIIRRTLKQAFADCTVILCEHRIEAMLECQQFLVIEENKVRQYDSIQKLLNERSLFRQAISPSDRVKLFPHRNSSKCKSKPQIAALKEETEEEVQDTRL

Compound | EC50 [1] | Emax [1] | CYP3A4 Hepatocytes mRNA % of positive control [2] | EC50 [3] | Emax [3]
COc1ccc2c(c1)O[C@@H](C13CC(C(=O)O)(C1)C3)C[C@H]2NC(=O)C1(c2ccc3c(c2)OC(F)(F)O3)CC1 (racemic) [Example 148, rac-3-[(2R,4R)-4-({[1-(2,2-difluoro-1,3-benzodioxol-5-yl)cyclopropyl]carbonyl}amino)-7-methoxy-3,4-dihydro-2H-chromen-2-yl]bicyclo[1.1.1]pentane-1-carboxylic acid] | 1100 nM | 44% |  | 2120 nM | 77%
COc1ccc2c(c1)O[C@@H](c1cccc(C(=O)O)c1)C[C@H]2NC(=O)C1(c2ccc3c(c2)OC(F)(F)O3)CC1 [Example 1, 3-[(2R,4R)-4-({[1-(2,2-difluoro-1,3-benzodioxol-5-yl)cyclopropyl]carbonyl}amino)-7-methoxy-3,4-dihydro-2H-chromen-2-yl]benzoic acid] | 290 nM | 95% | 14% | 280 nM | 102%
O=C(O)c1cccc([C@H]2C[C@@H](NC(=O)C3(c4ccc5c(c4)OC(F)(F)O5)CC3)c3ccccc3O2)c1 [Example 9, 3-[(2R,4R)-4-({[1-(2,2-difluoro-1,3-benzodioxol-5-yl)cyclopropyl]carbonyl}amino)-3,4-dihydro-2H-chromen-2-yl]benzoic acid] | 160 nM | 92% | 16.1% | 420 nM | 84%
Cc1ccc2c(c1)[C@H](NC(=O)C1(c3ccc4c(c3)OC(F)(F)O4)CC1)C[C@H](c1cccc(C(=O)O)c1)O2 [Example 14, 3-[(2R,4R)-4-({[1-(2,2-difluoro-1,3-benzodioxol-5-yl)cyclopropyl]carbonyl}amino)-6-methyl-3,4-dihydro-2H-chromen-2-yl]benzoic acid] |  |  | 3.54% | 850 nM | 78%
O=C(O)c1cccc([C@H]2C[C@@H](NC(=O)C3(c4ccc5c(c4)OC(F)(F)O5)CC3)c3cccc(F)c3O2)c1 [Example 119, 3-[(2R,4R)-4-({[1-(2,2-difluoro-1,3-benzodioxol-5-yl)cyclopropyl]carbonyl}amino)-8-fluoro-3,4-dihydro-2H-chromen-2-yl]benzoic acid] | 450 nM | 80% |  | 880 nM | 71%
O=C(O)c1ccc([C@H]2C[C@@H](NC(=O)C3(c4ccc5c(c4)OC(F)(F)O5)CC3)c3ccccc3O2)cc1 [Example 121, 4-[(2R,4R)-4-({[1-(2,2-difluoro-1,3-benzodioxol-5-yl)cyclopropyl]carbonyl}amino)-3,4-dihydro-2H-chromen-2-yl]benzoic acid] | 38 nM | 87% |  | 130 nM | 102%
COc1ccc2c(c1)O[C@@H](c1ccc(C(=O)O)c(F)c1)C[C@H]2NC(=O)C1(c2ccc3c(c2)OC(F)(F)O3)CC1 [Example 139, 4-[(2R,4R)-4-({[1-(2,2-difluoro-1,3-benzodioxol-5-yl)cyclopropyl]carbonyl}amino)-7-methoxy-3,4-dihydro-2H-chromen-2-yl]-2-fluorobenzoic acid] | 31.3 nM | 100% |  | 100 nM | 115%

Other lines, results leading:

EC50 [1] | Emax [1] | CYP3A4 Hepatocytes mRNA % of positive control [2] | EC50 [3] | Emax [3] | Compound
3400 nM | 51% | 9.41% | 3240 nM | 98% | COc1ccc2c(n1)O[C@@H](c1cccc(C(=O)O)c1)C[C@H]2NC(=O)C1(c2ccc3c(c2)OC(F)(F)O3)CC1 (racemic) [Example 28, rac-3-[(2R,4R)-4-({[1-(2,2-difluoro-1,3-benzodioxol-5-yl)cyclopropyl]carbonyl}amino)-7-methoxy-3,4-dihydro-2H-pyrano[2,3-b]pyridin-2-yl]benzoic acid]
 |  | 49.3% | 390 nM | 135% | COc1ccc2c(c1)O[C@@H](c1ccc(OC)c(OC)c1)C[C@H]2NC(=O)C1(c2ccc3c(c2)OC(F)(F)O3)CC1 [Example 3, 1-(2,2-difluoro-1,3-benzodioxol-5-yl)-N-[(2R,4R)-2-(3,4-dimethoxyphenyl)-7-methoxy-3,4-dihydro-2H-chromen-4-yl]cyclopropanecarboxamide]
210 nM | 111% | 9.38% | 630 nM | 103% | COc1ccc2c(c1)[C@H](NC(=O)C1(c3ccc4c(c3)OC(F)(F)O4)CC1)C[C@H](c1cccc(C(=O)O)c1)O2 [Example 19, 3-[(2R,4R)-4-({[1-(2,2-difluoro-1,3-benzodioxol-5-yl)cyclopropyl]carbonyl}amino)-6-methoxy-3,4-dihydro-2H-chromen-2-yl]benzoic acid]
110 nM | 88% |  | 340 nM | 93% | O=C(O)C1CCCC([C@H]2C[C@@H](NC(=O)C3(c4ccc5c(c4)OC(F)(F)O5)CC3)c3ccc(OC(F)F)cc3O2)C1 (stereo partly drawn) [Example 26, 3-[(2R,4R)-4-({[1-(2,2-difluoro-1,3-benzodioxol-5-yl)cyclopropyl]carbonyl}amino)-7-(difluoromethoxy)-3,4-dihydro-2H-chromen-2-yl]cyclohexanecarboxylic acid]
75 nM | 117% |  | 120 nM | 113% | O=C(O)c1cccc([C@H]2C[C@@H](NC(=O)C3(c4ccc5c(c4)OC(F)(F)O5)CC3)c3ccc(OC(F)F)cc3O2)c1 [Example 27, 3-[(2R,4R)-4-({[1-(2,2-difluoro-1,3-benzodioxol-5-yl)cyclopropyl]carbonyl}amino)-7-(difluoromethoxy)-3,4-dihydro-2H-chromen-2-yl]benzoic acid]
 |  | 40.2% |  |  | O=C(O)c1cccc([C@H]2C[C@@H](NC(=O)C3(c4ccc5c(c4)OC(F)(F)O5)CC3)c3ccc(F)cc3O2)c1 [Example 38, 3-[(2R,4R)-4-({[1-(2,2-difluoro-1,3-benzodioxol-5-yl)cyclopropyl]carbonyl}amino)-7-fluoro-3,4-dihydro-2H-chromen-2-yl]benzoic acid]
86 nM | 96% | 39.6% | 340 nM | 115% | O=C(O)c1cccc([C@H]2C[C@@H](NC(=O)C3(c4ccc5c(c4)OC(F)(F)O5)CC3)c3ccc(C(F)(F)F)cc3O2)c1 [Example 108, 3-[(2R,4R)-4-({[1-(2,2-difluoro-1,3-benzodioxol-5-yl)cyclopropyl]carbonyl}amino)-7-(trifluoromethyl)-3,4-dihydro-2H-chromen-2-yl]benzoic acid]
